Results as given in PMC5059743, “Crystal structures of the human elongation factor eEFSec suggest a non-canonical mechanism for selenocysteine incorporation” (Nature Communications, 2016).
Numbering of substitutions follows the chain as printed.

How the values were obtained:
Assay in all cases: isothermal titration calorimetry
Assay type in all cases: binding
human eEFSec [1] = molecular target: T1, human eEFSec (Homo sapiens, UniProt P57772)
T1 construct: intact full-length, N-terminal 6xHis tag (pET15b, no tag removal described), E. coli Lemo21(DE3); monomer in solution; SeMet form also made for phasing
T1 sequence (P57772 1-596): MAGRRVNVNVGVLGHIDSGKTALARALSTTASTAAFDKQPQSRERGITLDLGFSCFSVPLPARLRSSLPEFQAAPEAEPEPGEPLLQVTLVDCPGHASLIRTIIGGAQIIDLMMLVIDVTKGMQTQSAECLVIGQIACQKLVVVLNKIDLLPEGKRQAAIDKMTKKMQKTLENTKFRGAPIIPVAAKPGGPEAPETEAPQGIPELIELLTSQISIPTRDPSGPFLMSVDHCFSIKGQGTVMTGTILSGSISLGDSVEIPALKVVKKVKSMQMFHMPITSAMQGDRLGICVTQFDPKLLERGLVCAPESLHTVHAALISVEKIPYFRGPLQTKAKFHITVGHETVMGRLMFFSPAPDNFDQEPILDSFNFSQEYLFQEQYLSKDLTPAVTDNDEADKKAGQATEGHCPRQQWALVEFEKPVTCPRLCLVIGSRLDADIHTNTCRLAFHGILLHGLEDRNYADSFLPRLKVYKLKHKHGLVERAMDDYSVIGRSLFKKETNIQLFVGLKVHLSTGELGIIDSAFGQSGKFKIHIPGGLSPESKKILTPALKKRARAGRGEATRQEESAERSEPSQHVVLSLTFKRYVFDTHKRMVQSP

human eEFSec [2] = molecular target: T2, human eEFSec (Homo sapiens, UniProt P57772, D92A)
T2 construct: intact full-length, N-terminal 6xHis tag (pET15b, no tag removal described), E. coli Lemo21(DE3); monomer in solution; SeMet form also made for phasing
T2 sequence (P57772 1-596 D92A): T1 sequence (P57772 1-596) with D92A

human eEFSec [3] = molecular target: T3, human eEFSec (Homo sapiens, UniProt P57772, T48A)
T3 construct: intact full-length, N-terminal 6xHis tag (pET15b, no tag removal described), E. coli Lemo21(DE3); monomer in solution; SeMet form also made for phasing
T3 sequence (P57772 1-596 T48A): T1 sequence (P57772 1-596) with T48A

human eEFSec [4] = molecular target: T4, human eEFSec (Homo sapiens, UniProt P57772, H96A)
T4 construct: intact full-length, N-terminal 6xHis tag (pET15b, no tag removal described), E. coli Lemo21(DE3); monomer in solution; SeMet form also made for phasing
T4 sequence (P57772 1-596 H96A): T1 sequence (P57772 1-596) with H96A

Structure (SMILES)	Kd (human eEFSec [1]) [nM]	Kd (human eEFSec [2]) [nM]	Kd (human eEFSec [3]) [nM]	Kd (human eEFSec [4]) [nM]
Nc1nc(O)c2ncn([C@@H]3O[C@H](COP(=O)(O)OP(=O)(O)C[P+]([O-])(O)O)[C@@H](O)[C@H]3O)c2n1 [GDPCP]	1850 ± 240	–	–	–
Nc1nc2c(ncn2[C@@H]2O[C@H](COP(=O)(O)OP(=O)(O)NP(=O)(O)O)[C@@H](O)[C@H]2O)c(=O)[nH]1 [GDPNP]	1200 ± 470	–	–	–
Nc1nc2c(ncn2[C@@H]2O[C@H](COP(=O)(O)OP(=O)(O)O)[C@@H](O)[C@H]2O)c(=O)[nH]1 [GDP]	190 ± 50	1500 ± 130	240 ± 50	1300 ± 240
Nc1nc2c(ncn2[C@@H]2O[C@H](COP(=O)(O)OP(=O)(O)OP(=O)(O)O)[C@@H](O)[C@H]2O)c(=O)[nH]1 [GTP]	1210 ± 260	8470 ± 490	1820 ± 110	1600 ± 750
Nc1nc2c(ncn2[C@@H]2O[C@H](COP(=O)(O)OP(=O)(O)OP(O)(O)=S)[C@@H](O)[C@H]2O)c(=O)[nH]1 [GTPγS]	480 ± 60	–	–	–
